Data taken from ChEMBL document CHEMBL1125315, “Synthesis and evaluation of 2-pyridinone derivatives as HIV-1-specific reverse transcriptase inhibitors. 2. Analogues of 3-aminopyridin-2(1H)-one” (J Med Chem, 1992).

What follows are molecules tested on H9 (assay: Compound was evaluated for antiviral activity in H9 cells. Cell culture inhibitor concentration (CIC95) is defined as uM). Conditions: Homo sapiens, read-out: CIC95.
Assay type: functional
With `CCc1cc(NCc2nc3c(C)ccc(C)c3o2)c(O)nc1C` the IC95 was 100 nM.

These molecules were tested on MT4 (assay: Compound was evaluated for antiviral activity in MT-4 cells. Cell culture inhibitor concentration (CIC95) is defined as concentration which inhibited >95% the spread of HIV-1 IIIb infection in susceptible cell culture; value ranges from 0.025-0.050 uM). Conditions: Homo sapiens, read-out: CIC95.
Assay type: functional
Work on `CCc1cc(NCc2nc3c(C)ccc(C)c3o2)c(O)nc1C` yielded an IC95 of 25 nM. `CCc1cc(NCc2nc3c(Cl)ccc(Cl)c3o2)c(O)nc1C` [L-697661] showed an IC95 of 25 nM.

These molecules were tested on MT4 (assay: Compound was evaluated for antiviral activity against MT-4 cells. Cell culture inhibitor concentration (CIC95) is defined as those which inhibited by >95% the spread of HIV-1 IIIb infection in susceptible cell culture; value ranges from 0.012-0.025 uM). Conditions: Homo sapiens, read-out: CIC95.
Assay type: functional
`Cc1cn([C@H]2C[C@H](N=[N+]=[N-])[C@@H](CO)O2)c(=O)[nH]c1=O` [ZIDOVUDINE] showed an IC95 of 12 nM.

The molecules below were run on MT4 (assay: Compound was evaluated for antiviral activity in MT-4 cells. Cell culture inhibitor concentration (CIC95) is defined as concentration which inhibited >95% the spread of HIV-1 IIIb infection in susceptible cell culture). Conditions: Homo sapiens, read-out: CIC95.
Assay type: functional
In the case of `CCc1cc(NCc2cc3c(Cl)ccc(Cl)c3o2)c(O)nc1C`, the IC95 is reported as 50 nM. `CSc1cc(NCc2nc3c(Cl)ccc(Cl)c3o2)c(O)nc1C` was tested, and the IC95 was 100 nM. Molecule `CCc1cc(NCc2nc3ccccc3o2)c(O)nc1C` has an IC95 of 200 nM.

Each molecule was assayed on H9 (assay: Compound was evaluated for antiviral activity against H9 cells. Cell culture inhibitor concentration (CIC95) is defined as those which inhibited by >95% the spread of HIV-1 IIIb infection in susceptible cell culture). Conditions: Homo sapiens, read-out: CIC95.
Assay type: functional
Molecule `Cc1cn([C@H]2C[C@H](N=[N+]=[N-])[C@@H](CO)O2)c(=O)[nH]c1=O` [ZIDOVUDINE] has an IC95 of 20000 nM.

What follows are molecules tested against Human immunodeficiency virus type 1 reverse transcriptase (Human immunodeficiency virus 1, UniProt Q72547) (assay: In vitro HIV-1 RT inhibitory activity using rC.dG as template-primer). Conditions: not given.
For `CCc1cc(NCc2coc3ccccc3c2=O)c(=O)[nH]c1C`, the IC50 was 1100 nM. Molecule `CCc1cc(NCc2cc3ccccc3s2)c(O)nc1C` has an IC50 of 500 nM. In the case of `CCc1cc(NCc2nc3c(F)ccc(Cl)c3o2)c(=O)[nH]c1C`, the IC50 is reported as 105 nM. `CCc1cc(NCc2ccc3ccccc3c2)c(=O)n(C)c1C` showed an IC50 of 11000 nM. In the case of `CCc1cc(NCc2cc3cccc(Cl)c3o2)c(O)nc1C`, the IC50 is reported as 335 nM. `CCc1cc(NCc2cc3c(Cl)ccc(Cl)c3o2)c(O)nc1C` was tested, and the IC50 was 57 nM. `CCc1cc(NCc2ccc3ccccc3n2)c(=O)[nH]c1C` gave an IC50 of 530 nM. Molecule `O=c1[nH]c2ccccc2cc1NCc1ccc2ccccc2c1` has an IC50 greater than 300000 nM. In the case of `CCc1cc(NCc2cc3cnccc3o2)c(=O)[nH]c1C`, the IC50 is reported as 32300 nM. Work on `CCc1cc(NCc2nc3c(O)cccc3o2)c(=O)[nH]c1C` yielded an IC50 of 440 nM. Work on `CCc1cc(NCc2nc3c([N+](=O)[O-])cccc3o2)c(O)nc1C` yielded an IC50 of 24500 nM. Work on `CCOC(=O)c1cc(NCc2nc3ccccc3o2)c(=O)[nH]c1C` yielded an IC50 of 1750 nM. In the case of `CCc1cc(NCc2cc3ccncc3o2)c(O)nc1C`, the IC50 is reported as 105000 nM. `CC(=O)c1cc(NCc2nc3c(Cl)ccc(Cl)c3o2)c(O)nc1C` gave an IC50 of 300 nM. For `CCc1cc(NCc2nc3ccc(F)cc3o2)c(=O)[nH]c1C`, the IC50 was 1250 nM. Molecule `CCc1cc(NCc2nc3c(ccc4ccccc43)o2)c(O)nc1C` has an IC50 of 2700 nM. Work on `CCc1cc(N(C)Cc2nc3c(C)ccc(C)c3o2)c(=O)[nH]c1C` yielded an IC50 of 103 nM. Molecule `CCSc1cc(NCc2nc3ccccc3o2)c(=O)[nH]c1C` has an IC50 of 430 nM. For `CCc1cc(NCc2nc3c(Cl)cccc3o2)c(O)nc1C`, the IC50 was 150 nM. In the case of `Cc1[nH]c(=O)c(NCc2nc3c(Cl)ccc(Cl)c3o2)cc1C(C)O` (configuration not stated), the IC50 is reported as 1050 nM. Work on `CCc1cc(NCc2ccc3ccccc3c2)c(=S)[nH]c1C` yielded an IC50 of 300 nM. Work on `CSc1cc(NCc2nc3ccccc3o2)c(O)nc1C` yielded an IC50 of 190 nM. Molecule `CCc1cc(NCc2nc3cccc(CC)c3o2)c(O)nc1C` has an IC50 of 260 nM. `CCc1cc(NCc2nc3c(F)cccc3o2)c(=O)[nH]c1C` was tested, and the IC50 was 110 nM. `CCc1cc(NCc2nc3ncccc3o2)c(O)nc1C` showed an IC50 of 1900 nM. With `Cc1cc(C)c(NCc2nc3c(Cl)ccc(Cl)c3o2)c(=O)[nH]1` the IC50 was 2850 nM. `CCc1cc(NC(C)c2ccc3ccccc3c2)c(O)nc1C` (configuration not stated) was tested, and the IC50 was 1130 nM. `CCc1cc(N(C)Cc2cc3c(Cl)ccc(Cl)c3o2)c(=O)[nH]c1C` gave an IC50 of 1050 nM. With `CCc1cc(NCc2ncc(-c3ccccc3)o2)c(=O)[nH]c1C` the IC50 was 2350 nM. `CCc1cc(NCc2oc3ccccc3c2C)c(=O)[nH]c1C` gave an IC50 of 1950 nM. Molecule `CCc1cc(N(C)Cc2nc3c(Cl)ccc(Cl)c3o2)c(=O)[nH]c1C` has an IC50 of 58 nM. Work on `CCc1cc(NCc2nc3cccc(F)c3o2)c(=O)[nH]c1C` yielded an IC50 of 92 nM. `CCc1cc(NCc2nc3c(Cl)ccc(Cl)c3o2)c(S)nc1C` gave an IC50 of 42 nM. Work on `CCc1cc(NCc2nc3cc(F)ccc3o2)c(=O)[nH]c1C` yielded an IC50 of 470 nM. Work on `CCc1cc(NCc2nc3ccc(C)cc3o2)c(=O)[nH]c1C` yielded an IC50 of 1650 nM. Work on `CCc1cc(NCc2cnc3ccccc3c2)c(=O)[nH]c1C` yielded an IC50 of 335 nM. `Cc1[nH]c(=O)c(NCc2nc3ccccc3o2)cc1S(C)(=O)=O` gave an IC50 of 1150 nM. For `CCc1cc(NCc2ccoc2)c(O)nc1C`, the IC50 was 145000 nM. In the case of `CCc1cc(NCc2cc3ccccc3[nH]2)c(=O)[nH]c1C`, the IC50 is reported as 4400 nM. `CCc1cc(NCc2cccc3ccccc23)c(=O)[nH]c1C` showed an IC50 of 2100 nM. `CCc1cc(N(CC)Cc2nc3c(Cl)ccc(Cl)c3o2)c(O)nc1C` showed an IC50 of 654 nM. `COc1cc(NCc2nc3c(Cl)ccc(Cl)c3o2)c(O)nc1C` showed an IC50 of 115 nM. In the case of `CCc1cc(NCc2nc3c(OC)cccc3o2)c(=O)[nH]c1C`, the IC50 is reported as 180 nM. `CCc1cc(NCc2cc3ccccc3o2)c(O)nc1C` was tested, and the IC50 was 330 nM. Molecule `CCc1cc(NCc2ccc3ccccc3c2)c(=O)[nH]c1C` has an IC50 of 460 nM. `Cc1nc(O)c(NCc2nc3ccccc3o2)cc1[S+](C)[O-]` (configuration not stated) was tested, and the IC50 was 31500 nM. In the case of `CCc1cc(NCc2ccco2)c(=O)[nH]c1C`, the IC50 is reported as 29000 nM. `CSc1cc(NCc2nc3c(Cl)ccc(Cl)c3o2)c(O)nc1C` was tested, and the IC50 was 43 nM. `CCc1cc(NCc2nc3cc(C)ccc3o2)c(O)nc1C` showed an IC50 of 1250 nM. For `CCc1cc(NCc2nc3ccccc3c(=O)[nH]2)c(=O)[nH]c1C`, the IC50 was 2500 nM. `CCc1cc(NC(C)c2cc3ccccc3o2)c(=O)[nH]c1C` (configuration not stated) gave an IC50 of 970 nM. For `CCc1cc(NCc2nc3c(o2)CCCC3)c(=O)[nH]c1C`, the IC50 was 280 nM. With `CCc1cc(NCc2nc3cccc(Cl)c3o2)c(=O)[nH]c1C` the IC50 was 65 nM. `CCc1cc(NCc2ccccn2)c(O)nc1C` gave an IC50 of 15000 nM. `C=Cc1cc(NCc2nc3c(Cl)ccc(Cl)c3o2)c(=O)[nH]c1C` gave an IC50 of 23 nM. `CCc1cc(NCc2nc3c(N)cccc3o2)c(O)nc1C` showed an IC50 of 67000 nM. In the case of `CCc1cc(NCc2c[nH]c3ccccc23)c(O)nc1C`, the IC50 is reported as 22500 nM. For `CCc1cc(NCc2nc3cc4ccccc4cc3o2)c(=O)[nH]c1C`, the IC50 was 10000 nM. Work on `CCc1c(C)[nH]c(=O)c(NCc2nc3ccccc3o2)c1C` yielded an IC50 of 600 nM. For `CCc1cc(NCc2nc3c(F)ccc(F)c3o2)c(=O)[nH]c1C`, the IC50 was 70 nM. `CCc1cc(NCc2cccnc2)c(=O)[nH]c1C` showed an IC50 of 300000 nM. Work on `CCc1cc(NCc2ccccc2)c(=O)[nH]c1C` yielded an IC50 of 5330 nM. `CCc1cc(NCc2nc3ccccc3[nH]2)c(O)nc1C` gave an IC50 of 7580 nM. Work on `CCc1cc(NCc2nc3c(C)cccc3o2)c(O)nc1C` yielded an IC50 of 120 nM.
